Source: patent US11180483B2, “Substituted reverse pyrimidine Bmi-1 inhibitors” (PTC Therapeutics, Inc., priority 2012, dated 2021)

Each compound was assayed on Bmi-1 (assay: Sandwich ELISA Assay (Bmi-1 ELISA) in HT-1080 cells).
Format: cell-based
Summary of the method: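 HT-1080 cells exposed to compound in 0.5% final DMSO for 40-48 h at 37 °C, then lysed. Bmi-1 was quantified by sandwich ELISA: mouse monoclonal capture, rabbit anti-Bmi-1 detection, HRP anti-rabbit and TMB. Read at OD450 (OD570 reference) against a recombinant GST-Bmi-1 standard curve (0-8000 pg/mL).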

Compound | EC50 [nM]
Cc1nc2ccccc2n1-c1nc(N)cc(Nc2ccc(OC(F)F)c(F)c2)n1 [Cpd 235, N-[4-(difluoromethoxy)-3-fluorophenyl]-2-(2-methyl-1H-benzimidazol-1-yl)pyrimidine-4,6-diamine] | 10 to 100
FC(F)(F)c1ccc(Nc2ccnc(-c3c(C(F)(F)F)nc4ccc(Cl)cn34)n2)cc1 [Cpd 13, 2-[6-chloro-2-(trifluoromethyl)imidazo[1,2-a]pyridin-3-yl]-N-[4-(trifluoromethyl)phenyl]pyrimidin-4-amine] | 100 to 3000
COc1ccc(Nc2nc(-n3c(C)nc4cc(F)ccc43)nc(N)c2F)cc1 [Cpd 282, 5-fluoro-2-(5-fluoro-2-methyl-1H-benzimidazol-1-yl)-N-(4-methoxyphenyl)pyrimidine-4,6-diamine] | 1 to 10
CCOc1ccc(Nc2ccnc(-c3c(C(F)(F)F)nc4ccccn34)n2)cc1 [Cpd 37, N-(4-ethoxyphenyl)-2-[2-(trifluoromethyl)imidazo[1,2-a]pyridin-3-yl]pyrimidin-4-amine] | 10 to 100
Cc1ccc(Nc2nc(-n3c(C)nc4ccc([N+](=O)[O-])cc43)nc(N)c2F)cc1 [Cpd 232, 5-fluoro-2-(2-methyl-6-nitro-1H-benzimidazol-1-yl)-N-(4-methylphenyl)pyrimidine-4,6-diamine] | 10 to 100
COc1ccc2nc(C(F)(F)F)c(-c3nccc(Nc4ccc(OC(F)F)cc4)n3)n2c1 [Cpd 51, N-[4-(difluoromethoxy)phenyl]-2-[6-methoxy-2-(trifluoromethyl)imidazo[1,2-a]pyridin-3-yl]pyrimidin-4-amine] | 100 to 3000
Nc1nc(-n2c(C3CC3)nc3ccccc32)nc(Nc2ccc(OC(F)(F)F)cc2)c1F [Cpd 278, 2-(2-cyclopropyl-1H-benzimidazol-1-yl)-5-fluoro-N-[4-(trifluoromethoxy)phenyl]pyrimidine-4,6-diamine] | 100 to 3000
Cc1c(N)nc(-n2c(C)nc3ccccc32)nc1Nc1ccc(C(F)(F)F)cc1 [Cpd 172, 5-methyl-2-(2-methyl-1H-benzimidazol-1-yl)-N-[4-(trifluoromethyl)phenyl]pyrimidine-4,6-diamine] | 100 to 3000
COc1ccc2nc(C)n(-c3nc(N)c(F)c(Nc4ccc(Cl)cc4)n3)c2c1 [Cpd 245, N-(4-chlorophenyl)-5-fluoro-2-(6-methoxy-2-methyl-1H-benzimidazol-1-yl)pyrimidine-4,6-diamine] | 10 to 100
Cc1nc2cc(C#N)ccc2n1-c1nc(N)c(F)c(Nc2ccc(Cl)cc2)n1 [Cpd 230, 1-{4-amino-6-[(4-chlorophenyl)amino]-5-fluoropyrimidin-2-yl}-2-methyl-1H-benzimidazole-5-carbonitrile] | 100 to 3000
FC(F)(F)c1ccc(Nc2ccnc(-c3c(C(F)(F)F)nc4ccccn34)n2)cc1 [Cpd 7, 2-[2-(trifluoromethyl)imidazo[1,2-a]pyridin-3-yl]-N-[4-(trifluoromethyl)phenyl]pyrimidin-4-amine] | 100 to 3000
CSc1nc2ccccc2n1-c1nc(N)cc(Nc2ccc(C(F)(F)F)cc2)n1 [Cpd 182, 2-[2-(methylsulfanyl)-1H-benzimidazol-1-yl]-N-[4-(trifluoromethyl)phenyl]pyrimidine-4,6-diamine] | 100 to 3000
Cc1nc2ccccc2n1-c1nc(N)c(F)c(Nc2ccc3c(c2)OCO3)n1 [Cpd 203, N-(1,3-benzodioxol-5-yl)-5-fluoro-2-(2-methyl-1H-benzimidazol-1-yl)pyrimidine-4,6-diamine] | 1 to 10
Cc1ccc(Nc2ccnc(-c3c(C)nc4ccc(C(F)(F)F)cn34)n2)cc1 [Cpd 20, N-(4-methylphenyl)-2-[2-methyl-6-(trifluoromethyl)imidazo[1,2-a]pyridin-3-yl]pyrimidin-4-amine] | 100 to 3000
Cc1nc2ccccc2n1-c1nc(N)c(F)c(Nc2ccc(OC(F)(F)F)cc2)n1 [Cpd 204, 5-fluoro-2-(2-methyl-1H-benzimidazol-1-yl)-N-[4-(trifluoromethoxy)phenyl]pyrimidine-4,6-diamine] | 10 to 100
